Laboratory results published in paper doi:10.1101/2025.10.28.685111v1.
Like-named read-outs stand apart in the source and are kept apart here.

What was measured:
[1] = system: T1, Salmonella Typhimurium ATCC 14028 (STm); assay: microbe, parasite or virus in culture; set-up: Broth microdilution growth inhibition of STm at 500 uM in MHB, M9A or M9I, OD600; settings: Salmonella enterica
T1 construct: ATCC 14028
Experimental: Antimicrobial susceptibility was assessed using the traditional CLSI minimum inhibitory concentration (MIC) microplate dilution methods with a few modifications ([59]). Briefly, each compound (dissolved in MQ H2O for all pantetheinamides, or DMSO for pantothenamides) was serially diluted in 96-well plates to the desired concentrations. In the case of checkerboard assays, secondary compounds were separately diluted and added to the plate. Mid-exponential phase media-adapted bacteria were added at 5 × 10^5 CFU/mL and in the case of M9I or M9A cultures, the plates were sealed with a gas permeable moisture barrier seal (FroggaBio, Canada) to prevent excessive evaporation, before incubation at 37 °C and 350 rpm, using a tabletop orbital plate shaker (OHAUS, USA). Growth was quantified based on absorbance at 600 nm (OD600) using a microplate reader. The plate was monitored until there was visible growth in the untreated control, but without allowing for overgrowth: ∼14-16h (OD600 > 0.3) in MHB, ∼36 h (OD600 > 0.2) in M9A, and ∼72-120 h (OD600 > 0.15) in M9I. The IC50 was determined using a four-parameter logarithmic curve on Prism v9.0. All experiments were done at minimum in a biological triplicate. […] To accomplish this, the compounds were screened for their ability to reduce STm growth at a high concentration (500 μM) in various media that reflect nutrient-related facets of either extracellular or intracellular environments (Fig. 2a). Mueller-Hinton broth (MHB)—the medium most widely employed for antibacterial testing—was used to represent nutrient-rich extracellular environments such as the gut, while aspects of the nutrient-limited intramacrophage environment were mimicked by using M9-minimal media containing either acetate (M9A) or itaconate (M9I) as the sole carbon source. Growth in M9A requires the glyoxylate shunt, simulating the use of fatty acids ([33]), whereas growth in M9I, as shown in our previous study, requires an active itaconate-degradation pathway and induces excess oxidative stress that is reflective of the intramacrophage environment ([34]). Of the 75 compounds tested, 31 inhibited growth (by >50%) in M9I, six in M9A, and one in MHB. […] In particular, the pantothenamides 6-13 and 6-14 were active in M9A as well as M9I, with 6-13 being the only MHB active compounds. The other M9A active compounds were 1-03 and 1-17 from the “nitro” category and 4-02 and 4-08 from the “fluoro-alkyl” category.  Fig. 2: Screening the pantetheinamides library. a, Percentage growth inhibition of STm by each of the inhibitors in the library, tested at 500 µM in MHB, M9A, or M9I as the sole carbon source. Inhibition % values are summarized in Supplementary Data 1. b, The IC50 in M9I of a subset of the inhibitor library. The full dataset is shown in Fig. S1 and summarized in Supplementary Data 2. c, Dose-response curves in M9I, M9A, and MHB for selected inhibitors, fit to a four-parameter logarithmic curve. d, Tabulated IC50 (± 95% CI), cytotoxicity and selectivity index (given as the cytoxocity/IC50 in M9I) for the same inhibitors as in c. […] The full dataset is shown in Fig. S4a. g, Sample of results summarized in f showing the CFU of surviving STm inside the compound treated macrophages after 22 h. Data bars show the geometric mean of CFU/mL with error bars depicting the 95% CI. The vehicle control (± 95% CI) is shown as the red line. All experiments were independently repeated a minimum of 3 times, where n ≥ 4 for each condition. Significant results were determined using a one-way ANOVA with Dunnett’s multiple comparisons against the vehicle. ✱, p < 0.05; ✱✱, p < 0.01; ✱✱✱, p < 0.001; ✱✱✱✱, p < 0.0001; ns, non-significant, p > 0.05. “X” denotes that a concentration was omitted from the experiment due to toxicity.

[2] = system: T1, Salmonella Typhimurium ATCC 14028 (STm); assay: microbe, parasite or virus in culture; set-up: Broth microdilution dose-response growth inhibition of STm in M9I, OD600, four-parameter fit; settings: Salmonella enterica, read-out: IC50 (µM)
Experimental: Antimicrobial susceptibility was assessed using the traditional CLSI minimum inhibitory concentration (MIC) microplate dilution methods with a few modifications ([59]). Briefly, each compound (dissolved in MQ H2O for all pantetheinamides, or DMSO for pantothenamides) was serially diluted in 96-well plates to the desired concentrations. In the case of checkerboard assays, secondary compounds were separately diluted and added to the plate. Mid-exponential phase media-adapted bacteria were added at 5 × 10^5 CFU/mL and in the case of M9I or M9A cultures, the plates were sealed with a gas permeable moisture barrier seal (FroggaBio, Canada) to prevent excessive evaporation, before incubation at 37 °C and 350 rpm, using a tabletop orbital plate shaker (OHAUS, USA). Growth was quantified based on absorbance at 600 nm (OD600) using a microplate reader. The plate was monitored until there was visible growth in the untreated control, but without allowing for overgrowth: ∼14-16h (OD600 > 0.3) in MHB, ∼36 h (OD600 > 0.2) in M9A, and ∼72-120 h (OD600 > 0.15) in M9I. The IC50 was determined using a four-parameter logarithmic curve on Prism v9.0. All experiments were done at minimum in a biological triplicate. […] Consequently, the activity was reported as an IC50 value, rather than traditional MICs. […] All other categories had 2-4 molecules with sub-100 μM IC50 values. The general trend in activities for the substituents β to the acyl amide saw CF3 (e.g. 4-01) > thiazole (e.g. 5-01) > NO2 (e.g. 1-01) > CH3 (e.g. 3-01). […] Replacement of the thioester with either a sulfonamide or triazole, rather than an amide, was detrimental to activity. […] Furthermore, increasing the conformational rigidity of the α-substituent correlated with higher IC50 values (e.g, 1-14, methyl < 1-15, dimethyl < 1-16, cyclo  Fig. 2: Screening the pantetheinamides library. a, Percentage growth inhibition of STm by each of the inhibitors in the library, tested at 500 µM in MHB, M9A, or M9I as the sole carbon source. Inhibition % values are summarized in Supplementary Data 1. b, The IC50 in M9I of a subset of the inhibitor library. The full dataset is shown in Fig. S1 and summarized in Supplementary Data 2. c, Dose-response curves in M9I, M9A, and MHB for selected inhibitors, fit to a four-parameter logarithmic curve. d, Tabulated IC50 (± 95% CI), cytotoxicity and selectivity index (given as the cytoxocity/IC50 in M9I) for the same inhibitors as in c. […] The full dataset is shown in Fig. S4a. g, Sample of results summarized in f showing the CFU of surviving STm inside the compound treated macrophages after 22 h. Data bars show the geometric mean of CFU/mL with error bars depicting the 95% CI. The vehicle control (± 95% CI) is shown as the red line. All experiments were independently repeated a minimum of 3 times, where n ≥ 4 for each condition. Significant results were determined using a one-way ANOVA with Dunnett’s multiple comparisons against the vehicle. ✱, p < 0.05; ✱✱, p < 0.01; ✱✱✱, p < 0.001; ✱✱✱✱, p < 0.0001; ns, non-significant, p > 0.05. “X” denotes that a concentration was omitted from the experiment due to toxicity.

[3] = M9A, acetate minimal medium, 36 h, read-out: % Growth Inhibition (Avg) / M9A
[4] = M9I, itaconate minimal medium, 72-120 h, read-out: % Growth Inhibition (Avg) / M9I
[5] = MHB, nutrient-rich medium, 14-16 h, read-out: % Growth Inhibition (Avg) / MHB

SMILES | inhibition at 500 µM [1, 3] | inhibition at 500 µM [1, 4] | inhibition at 500 µM [1, 5] | IC50 [2]
CCCCCCCC(=O)NCCNC(=O)[C@H](O)C(C)(C)CO [6-14] | 98% | 99% | 16% | 1.1 µM
CC(C)(CO)[C@@H](O)C(=O)NCCC(=O)NCCNC(=O)/C=C/C(F)(F)F [4-04] | 37% | 94% | 0% | 5.1 µM
CC(C)(CO)[C@@H](O)C(=O)NCCC(=O)NCCNC(=O)C1CC1(F)F (some centres unmarked) [4-10] | 0% | 86% | 11% | 29 µM
CCCCCCCNC(=O)CCNC(=O)[C@H](O)C(C)(C)CO [6-13] | 100% | 100% | 90% | 0.13 µM
CC(C)(CO)[C@@H](O)C(=O)NCCC(=O)NCCNC(=O)C(F)C(F)(F)F (some centres unmarked) [4-07] | 15% | 94% | 1% | 30 µM
